Measurements: ChEMBL document CHEMBL5523769, “Discovery of Novel Nonpeptidic and Noncovalent Small Molecule 3CLpro Inhibitors as anti-SARS-CoV-2 Drug Candidate” (J Med Chem, 2024)
Active and inactive are the calls of the source. The rule behind the calls is not given here.

Tests used:
SARS-CoV-2 [1] = test: microbe, parasite or virus in culture; conditions: Severe acute respiratory syndrome coronavirus 2, Delta, Vero C1008
SARS-CoV-2 [2] = test: Antiviral activity against SARS-CoV-2 omicron BA.5 variant infected in K18-hACE2 transgenic mouse model assessed as increase in body weight at 50 mg/kg, po pre-infected with virus for 2 hrs followed by twice daily compound administration and measured on day 4 in presence of nirmatrelvir; assay type: functional, organism-based; conditions: Severe acute respiratory syndrome coronavirus 2, time 4.0 day
SARS-CoV-2 [3] = test: Antiviral activity against SARS-CoV-2 omicron BA.5 variant infected in K18-hACE2 transgenic mouse model assessed as increase in body weight at 200 mg/kg, po pre-infected with virus for 2 hrs followed by twice daily compound administration and measured on day 4 in presence of ritonavir; assay type: functional, organism-based; conditions: Severe acute respiratory syndrome coronavirus 2, time 4.0 day
SARS-CoV-2 [4] = test: Antiviral activity against SARS-CoV-2 omicron BA.5 variant infected in K18-hACE2 transgenic mouse model assessed as increase in body weight at 100 to 200 mg/kg, po pre-infected with virus for 2 hrs followed by twice daily compound administration and measured on day 4; assay type: functional, organism-based; conditions: Severe acute respiratory syndrome coronavirus 2, dose 100-200 mg/kg, time 4.0 day
SARS-CoV-2 [5] = test: Antiviral activity against SARS-CoV-2 omicron BA.5 variant infected in K18-hACE2 transgenic mouse model assessed as inhibition of viral replication at 100 mg/kg, po pre-infected with virus for 2 hrs followed by twice daily compound administration and measured on day 2 to 4; assay type: functional, organism-based; conditions: Severe acute respiratory syndrome coronavirus 2, time 2-4 day
SARS-CoV-2 [6] = test: Antiviral activity against SARS-CoV-2 omicron BA.5 variant infected in K18-hACE2 transgenic mouse model assessed as log reduction in viral copies in lungs at 200 mg/kg, po pre-infected with virus for 2 hrs followed by twice daily compound administration and measured on day 4; assay type: functional, Severe acute respiratory syndrome coronavirus 2; conditions: time 4 day
SARS-CoV-2 [7] = test: Antiviral activity against SARS-CoV-2 omicron BA.5 variant infected in K18-hACE2 transgenic mouse model assessed as log reduction in viral copies in lungs at 200 mg/kg, po pre-infected with virus for 2 hrs followed by twice daily compound administration and measured on day 2; assay type: functional, Severe acute respiratory syndrome coronavirus 2; conditions: time 2 day
SARS-CoV-2 [8] = test: microbe, parasite or virus in culture; conditions: Severe acute respiratory syndrome coronavirus 2, Delta, Vero C1008; remark: listed apart in the source

| SMILES | EC50 (SARS-CoV-2 [1]) | further results |
| --- | --- | --- |
| CNC(=O)c1cc(Br)cc([N+](=O)[O-])c1N[C@@H]1CCCC[C@@H]1NC(=O)c1cc(=O)[nH]c2c(F)cccc12 | 0.346 µM |  |
| O=C(NCCC(F)(F)F)C1CN(c2ccc(Cl)c(Cl)c2)CCN1C(=O)c1cc(=O)[nH]c2ccccc12 (centres undefined) | 17.7 µM |  |
| CC(C)c1nc(CN(C)C(=O)N[C@H](C(=O)N[C@@H](Cc2ccccc2)C[C@H](O)[C@H](Cc2ccccc2)NC(=O)OCc2cncs2)C(C)C)cs1 |  | Activity (SARS-CoV-2 [2]): Active |
| O=C(N[C@H]1CCCC[C@H]1Nc1c(C(=O)N2CCOCC2)cc(C2CC2)cc1[N+](=O)[O-])c1cc(=O)[nH]c2ccccc12 | 4.46 µM |  |
| CC(C)(C)[C@H](NC(=O)C(F)(F)F)C(=O)N1C[C@H]2[C@@H]([C@H]1C(=O)N[C@H](C#N)C[C@@H]1CCNC1=O)C2(C)C |  | Activity (SARS-CoV-2 [3]): Active |
| CNC(=O)c1cc(C2CC2)cc([N+](=O)[O-])c1N[C@@H]1CCCC[C@@H]1NC(=O)c1cc(=O)[nH]c2ccccc12 | 2.69 µM |  |
| O=C(N[C@H]1CCCC[C@H]1Nc1c(C(=O)N2CCOCC2)cc(Br)cc1[N+](=O)[O-])c1cc(=O)[nH]c2c(F)cccc12 | 0.367 µM |  |
| CN1CCN(C(=O)c2cc(Br)cc([N+](=O)[O-])c2N[C@@H]2CCCC[C@@H]2NC(=O)c2cc(=O)[nH]c3c(F)cccc23)CC1 | 0.272 µM | Activity (SARS-CoV-2 [4]): Active; Activity (SARS-CoV-2 [5]): Active; log(activity) (SARS-CoV-2 [6]): 1; log(activity) (SARS-CoV-2 [7]): 1.5 |
| CNC(=O)c1cc(Br)cc([N+](=O)[O-])c1N[C@@H]1CCCC[C@@H]1NC(=O)c1cc(=O)[nH]c2ccc(F)cc12 | 2.44 µM |  |
| COc1ccc2[nH]c(=O)cc(C(=O)N[C@H]3CCCC[C@H]3Nc3c(C(=O)N4CCOCC4)cc(C4CC4)cc3[N+](=O)[O-])c2c1 | 7.81 µM |  |
| O=C(c1cc(=O)[nH]c2ccccc12)N1CCN(c2ccc(Cl)c(Cl)c2)CC1CN1CCOCC1 (centres undefined) | 7.24 µM | EC50 (SARS-CoV-2 [8]): 7.24 µM |
| O=C(NCCCC(F)(F)F)C1CN(c2ccc(Cl)c(Cl)c2)CCN1C(=O)c1cc(=O)[nH]c2ccccc12 (centres undefined) | 3.95 µM |  |
| O=C(N[C@H]1CCCC[C@H]1Nc1c(C(=O)N2CCOCC2)cc(Br)cc1[N+](=O)[O-])c1cc(=O)[nH]c2ccccc12 | 3.36 µM |  |
| CNC(=O)c1cc(Br)cc([N+](=O)[O-])c1N[C@@H]1CCCC[C@@H]1NC(=O)c1cc(=O)[nH]c2ccccc12 | 0.849 µM |  |
